Results as given in paper PMC9661480, “Discovery and Optimization of Indoline-Based Compounds as Dual 5-LOX/sEH Inhibitors: In Vitro and In Vivo Anti-Inflammatory Characterization” (Journal of Medicinal Chemistry, 2022).

Columns and labels:
[1] = In vivo plasma levels of 73; settings: mouse, ip, mean ±SD
5-LOX = biological target: T1, 5-LOX (Homo sapiens, UniProt P09917); test: Cell-free 5-LOX activity assay; format: biochemical; design: made in house; host or cells: Escherichia coli Bl21 (DE3); settings: Table 2; human isolated 5-LOX; mean ± SEM
T1 sequence (P09917 1-674): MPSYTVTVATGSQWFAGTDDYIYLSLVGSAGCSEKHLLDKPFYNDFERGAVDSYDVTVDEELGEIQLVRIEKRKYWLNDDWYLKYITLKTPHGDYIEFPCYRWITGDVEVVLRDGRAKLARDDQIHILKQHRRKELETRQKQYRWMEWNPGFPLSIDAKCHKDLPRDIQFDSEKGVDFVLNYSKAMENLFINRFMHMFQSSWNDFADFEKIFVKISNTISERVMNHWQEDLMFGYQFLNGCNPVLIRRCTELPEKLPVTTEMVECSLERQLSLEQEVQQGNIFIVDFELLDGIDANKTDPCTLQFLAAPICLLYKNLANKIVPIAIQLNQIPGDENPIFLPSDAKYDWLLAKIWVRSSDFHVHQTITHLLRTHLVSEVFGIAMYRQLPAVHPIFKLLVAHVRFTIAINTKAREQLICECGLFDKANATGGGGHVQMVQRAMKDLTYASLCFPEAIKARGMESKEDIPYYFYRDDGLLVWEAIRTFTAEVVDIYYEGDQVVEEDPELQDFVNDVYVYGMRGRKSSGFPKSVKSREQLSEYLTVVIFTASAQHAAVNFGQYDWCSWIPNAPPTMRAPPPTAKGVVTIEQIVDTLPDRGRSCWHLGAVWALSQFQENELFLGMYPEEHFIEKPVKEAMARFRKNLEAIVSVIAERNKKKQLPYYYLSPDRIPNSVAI

human recombinant sEH = biological target: T2, human recombinant sEH (Homo sapiens, UniProt P34913); test: sEH activity assay (PHOME substrate); format: biochemical; settings: Table 2; human isolated sEH; mean ± SEM
T2 construct: made in house; host or cells: Sf9 insect cells (recombinant baculovirus)
T2 sequence (P34913 1-555): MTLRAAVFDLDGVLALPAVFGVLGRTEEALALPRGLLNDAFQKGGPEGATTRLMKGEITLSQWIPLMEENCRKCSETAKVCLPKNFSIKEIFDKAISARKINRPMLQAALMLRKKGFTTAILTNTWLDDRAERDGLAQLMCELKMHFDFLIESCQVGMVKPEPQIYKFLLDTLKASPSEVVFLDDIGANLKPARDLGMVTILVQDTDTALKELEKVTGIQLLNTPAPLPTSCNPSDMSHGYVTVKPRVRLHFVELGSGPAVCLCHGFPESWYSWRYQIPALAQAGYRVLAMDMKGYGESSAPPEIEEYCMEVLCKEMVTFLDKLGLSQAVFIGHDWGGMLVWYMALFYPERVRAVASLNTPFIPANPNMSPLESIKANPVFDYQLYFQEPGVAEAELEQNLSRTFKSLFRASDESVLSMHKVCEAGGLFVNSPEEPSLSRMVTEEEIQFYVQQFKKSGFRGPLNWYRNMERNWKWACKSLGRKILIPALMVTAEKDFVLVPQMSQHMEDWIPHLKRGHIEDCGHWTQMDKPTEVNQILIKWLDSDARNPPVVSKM

Compound | concentration at 0.5 h ([1]; 0.5 h after 10 mg Kg-1 intraperitoneal) [ng/mL] | concentration at 1 h ([1]; 1 h after 10 mg Kg-1 intraperitoneal) [ng/mL] | concentration at 2 h ([1]; 2 h after 10 mg Kg-1 intraperitoneal) [ng/mL] | concentration at 4 h ([1]; 4 h after 10 mg Kg-1 intraperitoneal) [ng/mL] | IC50 (5-LOX) [µM] | IC50 (human recombinant sEH) [µM]
CC(C)(C)CNC(=S)Nc1ccc2c(c1)CCN2Cc1ccc(N=O)cc1 [compound 73, 1-Neopentyl-3-(1-(4-nitrosobenzyl)indolin-5-yl)thiourea] | 15.4 ± 2.5 | 12.3 ± 0.9 | 10.6 ± 0.6 | 1.1 ± 0.1 | – | –
1-(1-(4-Aminobutyl)indolin-5-yl)-3-neopentylthiourea [compound 51] | – | – | – | – | > 10 | > 10
4-(3-(1-(4-Fluorobenzyl)indolin-5-yl)thioureido)benzoic Acid [compound 58] | – | – | – | – | – | > 10
